In a melting point compilation (Tetko et al.; mined from patent text by program, amines drawn as free bases though some values may be those of a salt) one finds melting point data, which are given here for 90 compounds.

The term melting point denotes the temperature, or range, at which the solid turns liquid.

The compound `CC(Cc1ccc(C(=O)OCOC(=O)C(C)(C)C)cc1)NCC(O)c1ccc(O)c(CO)c1` (stereo not given) registered a melting point of 55 to 57 °C. The value for `COC(=O)c1cc(O)cc(OC)c1` was 85 to 86 °C; that for `CC(=O)Nc1nc(CCCN2CCN(C(c3ccccc3)c3ccccc3)CC2)cs1` was 213 to 215 °C; that for `Cc1ccc(-c2nc(O)c(C)s2)cc1` was 172 to 174 °C. `C=C=Cn1c(C)c(C)c2cnnc(OCc3ccccc3)c21` displayed a melting point of 77 to 79 °C. The value for `c1ccc(CSc2nc3ccccc3s2)cc1` was 39 to 40 °C. Then `COc1nc(C)nc(NC(=O)NS(=O)(=O)c2ccccc2C(=O)O)n1`, with 157 to 158 °C; and `O=C1NCCC[C@@H]1NS(=O)(=O)c1ccc(C(F)(F)F)cc1`, with 181 to 183 °C.

As to `COC(=O)c1ccc(CN([C@@H](C)c2ccccc2)S(=O)(=O)c2ccc(Cl)cc2)cc1`, the melting point fell in the range of 105 to 106 °C. Then `COc1cc(C(=O)NS(=O)(=O)c2ccccc2Cl)ccc1Cc1cn(C)c2ccc(CCNC(=O)N(C)C)cc12`, with 208 to 211 °C; and `Cc1oc(-c2ccccc2)nc1COc1ccc(OCc2oc(-c3ccccc3)nc2CO)cc1`, with 143 to 144 °C. The value for `COc1cc(CCl)ccc1OCc1coc(-c2ccco2)n1` was 123 to 124 °C. The value for `CN1C(=O)CC[C@]2(C)c3ccc(-c4cccc5ccccc45)cc3CC[C@@H]12` was 159 °C; that for `CCOC=Nc1nc(-c2ccc(C3CCCCC3)cc2)cs1` was 84 to 85 °C; that for `O=[N+]([O-])c1ccc(Cn2c(CO)nc3ccccc32)cc1` was 162 to 165 °C. Regarding `COC(=O)Oc1ccc(OC)cc1`, the melting point fell in the range of 33 to 34 °C. Then `Cc1ccc(-c2coc3c(C)c(C)cc(C)c23)cc1`, with 112 to 113 °C; and `COc1ccc2[nH]c3c(c2c1)CCN1CN(C)CCC31` (stereo not given), with 199 to 200 °C. The value for `CCCc1c(C(=O)OCC)nc2c(CCC)c3oc(C(=O)OCC)cc(=O)c3cc2c1Cl` was 145 to 147 °C. Then `Cc1ccc([N+](=O)[O-])cc1S(=O)(=O)N1CCOCC1`, with 114 to 115 °C; and `Cc1ccc(OC(=O)N2CC3CC(CN(CC(O)COc4ccc(C#N)cc4)C3)C2)cc1` (stereo not given), with 125 to 126 °C; and `Cc1nc(O)c(C#N)c(C)c1Br`, with 254 to 262 °C. `CC(CO)(CO)NS(=O)(=O)c1cc(NC(=O)c2cnn3c(C(F)(F)F)cc(-c4ccc(C(F)(F)F)cc4)nc23)c(Cl)s1` returned a melting point of 201 °C. Then `CNC(=N)NC(=O)c1nc(Cl)c(NC2CCCC2)nc1N`, with 184 to 187 °C. The value for `CCC(CC)c1ccc(Cl)c2nc(Nc3cnc(OC)cc3C)n(CCCCO)c12` was 146 to 147 °C; that for `FC(F)(F)Oc1ccc(C=CC(C=Cc2ccc(OC(F)(F)F)cc2)=NNC2=NCCCN2)cc1` was 140 to 142 °C. The value for `CCNC(=O)C1(CCCc2ccccc2)c2ccccc2Oc2ccccc21` was 130 °C. `CCCN(CCC)Cc1nc(-c2ncn3c2[C@@H]2CCN2C(=O)c2ccccc2-3)no1` came in with a melting point of 208 to 210 °C.

With `CCCCc1nc2cnc3cccnc3c2n1CCNC(=O)OC(C)(C)C`, the melting point was in the range of 198 to 199 °C.

For the compound `CN(C)c1ccc(-c2cnc3[nH]cc(C(=O)N[C@@H](C(=O)N4CC(C#N)C4)C4CC4)c3n2)cc1`, the melting point is 175 to 180 °C. Then `CCOC(=O)C(CNC(=O)CSC(=O)c1ccccc1)NC(=O)CSC(=O)c1ccccc1` (stereo not given), with 130 to 131 °C; and `O=C(NC1CCCCC1)NS(=O)(=O)c1ccc2c(c1)CCN(C(=O)N1CCCCCC1)CC2`, with 155 to 156 °C; and `O=C(O)C(S)c1ccc(Cl)cc1` (stereo not given), with 123 to 125 °C. Then `O=C(CCl)NC1CCCc2sccc21` (stereo not given), with 115 to 119 °C.

With `COc1ccc2c(c1)-c1nc(-c3ccccc3C)c(N)n1CC2`, the melting point turned out to be 160 °C. The value for `COc1nc(NC(=O)NS(=O)(=O)c2cc(Cl)ccc2C(=O)OC(C)C)nc(C(F)(F)F)n1` was 160 to 163 °C; that for `CC(C)(C)OC(=O)CC1CCC(=O)Nc2ccccc21` (stereo not given) was 101 to 103 °C; that for `CCOC(=O)c1cc2c(nc(C)n2C)c(O)c1CCC(=O)c1ccccc1` was 205 to 206 °C. Then `CN(C)[C@H]1C[C@@H]2CN(C(=O)c3ccc(NC(=O)c4ccccc4-c4ccccc4)cc3)c3ccccc3N2C1`, with 195 to 197 °C; and `CC(=O)Oc1ccc(C(=O)Oc2ccc(OC(=O)c3ccc(OC(C)=O)cc3)cc2)cc1`, with 185 to 186 °C; and `COc1ccccc1-c1c(CC(=O)O)n(C)c2ccc(Cl)cc12`, with 153 to 154 °C. Then `CCn1c(C)nc2cc(C(=O)OC)ccc21`, with 118 to 121 °C; and `COc1ccc2c(c1)N(CC(=O)O)C(=O)C(N)CC2` (stereo not given), with over 300 °C. The compound `CCCCCCCCCNC(=O)CCCC` came in with a melting point of 29 to 31 °C. The value for `Oc1ccc(C(=Cc2ccccc2)c2ccc(O)c(O)c2O)c(O)c1O` was 142 to 143 °C.

`CCCCCCNC(=O)Nc1ccccc1C(=O)NCCC1CCN(C(c2ccccc2)c2ccccc2)CC1`: the melting point lay in the range of 143 to 144 °C.

For `CC(=O)c1ccc(NC(=O)N2CCC3(CC2)CN(S(N)(=O)=O)c2ccccc23)cc1`, the melting point is 233 to 236 °C.

Compound `O=C(O)CCCNC(=O)[C@@H](Cc1ccccc1)C[C@H](Cc1ccccc1)C(=O)O` (relative stereo) showed a melting point of 127 to 129 °C.

In the case of `NS(=O)(=O)c1cccc2c1CSC2`, the melting point lay within 146 to 148 °C. Compound `CCOCN1C(C)=C(C(=O)O)[C@H](c2cccc([N+](=O)[O-])c2)C(C(=O)OCOC(=O)C(C)(C)C)=C1C` registered a melting point of 85 to 86 °C.

For the compound `CCOC(=O)c1cnc2ccc(I)cn2c1=O`, the melting point was in the range of 166 to 168 °C.

Compound `CCCCCCCCCCCCCCOc1ccc(C(=O)OC)cc1OCCCCCCCCCCCCCC` had a melting point of 50 to 51 °C.

In the case of `CC1CCc2c(ccc(F)c2-n2ccnc2)N1` (stereo not given), the melting point lay within 162 to 164 °C.

With `O=C(NC1CCCc2cc(C(=O)Nc3ccncc3)ccc21)OCc1ccccc1` (stereo not given), the melting point was in the range of 157 to 159 °C. Then `COc1cc(O)c2c(=O)cc(C(=O)Nc3ccc(CC4SC(=O)NC4=O)cc3)oc2c1` (stereo not given), with 255 to 256 °C; and `CNC(=O)C(Cc1ccc(OC)cc1)NC(=O)C(=CCC(=O)OC)CC(C)C` (stereo not given), with 142 to 144 °C. The value for `O=C1CCC(c2ccc(Cl)c(Cl)c2)O1` (stereo not given) was 54 to 55 °C; that for `COCc1cccc2c1OCCC(C(=O)OC)=C2` was 76 to 78 °C; that for `Cn1ncc2c(=O)[nH]cnc21` was 289 to 290 °C. Then `O=C(c1cc(O)c(O)c([N+](=O)[O-])c1)c1ccccc1F`, with 169 to 171 °C; and `NC(=O)c1cc(O)cc2nc(-c3ccc(O)cc3)oc12`, with 325 °C. `Cc1ccc(-c2ncc(Cl)cc2-c2ccc(S(C)=O)cc2)cn1` (stereo not given): the melting point lay within 122 to 123 °C. The value for `COc1ccc(C(O)(c2ccc3c(c2)C(c2cccc(Cl)c2)Nc2nnnn2-3)c2cncn2C)cc1` (stereo not given) was 220 °C; that for `O=C(O)C=CC(=O)c1ccccc1O` was 172 to 173 °C; that for `O=c1[nH]c(=O)n(C2CC(O)C(CO)O2)cc1C(I)=CI` (stereo not given) was 103 to 105 °C. `COc1cc(N)ccc1S(=O)(=O)Nc1ccc(C)cc1` registered a melting point of 158 to 160 °C. In turn, `CCc1c(C(=O)OC(C)C)ncc2[nH]c3ccc(NC(C)=S)cc3c12` came in with a melting point of 158 to 160 °C. Then `Cc1nc2cc(Cl)ccc2c2ccccc12`, with 129 to 131 °C; and `CC(=O)NCCOC(c1ccc(F)cc1)c1ccc(F)cc1`, with 112 to 114 °C.

Regarding `O=C(O)CCNC(=O)c1cc([N+](=O)[O-])c2ccccc2c1O`, the melting point turned out to be 254 °C. Then `CNC(=O)c1sc(C(C)(C)C)cc1NC(=O)Nc1ccc(C(C)C)cc1`, with 113 to 120 °C. The value for `C=CCOc1ccc2c(C)cc(=O)oc2c1C(=O)C=Cc1cccc(OC)c1` was 61 to 63 °C; that for `O=C(c1cc2ccc(O)cc2[nH]1)N1CCC(Cc2ccc(F)cc2)CC1` was 180 to 182 °C. For `O=C1NCN2c3ccc([N+](=O)[O-])cc3Sc3cccc1c32`, the melting point fell in the range of 205 to 208 °C. `Sc1nc2cccccc-2n1`: the melting point stood at 300 °C. With `O=C(O)C(=NO)c1cccs1`, the melting point was found to be 132 °C.

`CCOc1cc2cc(CO)c(CO)c(-c3ccnc(-n4nc(-c5cccnc5)c5ccccc5c4=O)c3)c2cc1OCC` came in with a melting point of 222 °C. `CC(=O)OC1CSC(Oc2cccc(-c3ccccn3)c2)C(OC(C)=O)C1OC(C)=O` (stereo not given) registered a melting point of 68 to 97 °C. Then `CC(C)=CCOC(C)C1CCC2=C3C=CC4C(C)(C)C(O)CCC4(C)C3CCC21C` (stereo not given), with 171 to 174 °C; and `CCOC(=O)C1=C(C)NC(CO)=C(C(=O)OCC)C1c1ccccc1[N+](=O)[O-]` (stereo not given), with 112 to 113 °C. The value for `CC(C)n1nc(C(=O)C(=O)c2ccccc2)ccc1=O` was 71 to 73 °C. Then `C#CCn1cc(F)cnc1=O`, with 107 to 108 °C.

As for `Oc1ccc(-c2cnc3cnc(-c4ccc(O)cc4)nc3c2)cc1`, the melting point fell in the range of 307 to 308 °C. The compound `CN(C)C(=O)c1c([N+](=O)[O-])cccc1S(=O)(=O)N(C)CCO` came in with a melting point of 107 °C. Then `CC12CCC3C(CCC4CC=CCC43C)C1CC=C2Br` (stereo not given), with 76 to 77 °C; and `CCCN(CCC)Cc1csc(-c2ncn3c2[C@@H]2CCN2C(=O)c2c(Cl)cccc2-3)n1`, with 200 to 201 °C; and `COC(=O)c1ccnc(Nc2cc(OC)cc(C(F)(F)F)c2)c1`, with 178 to 179 °C. The value for `c1cc2nc3c(n2nc1N1CCCCC1)CCCC3` was 184 to 185 °C; that for `COc1ccc2nc(Sc3ccc4c(c3)CC[C@H]3N(C)C(=O)CC[C@]43C)sc2c1` was 102 to 107 °C.

Consider `O=C1CCC(c2ccccc2)(c2ccccc2)[C@@H]2CN(C(=O)Cc3ccccc3N3CCOCC3)C[C@H]12` (racemic), for which the melting point was 167 °C.
